Measured values published in PubChem BioAssay AID256 (DTP/NCI, 2004).
Values joined by “and” are separate entries in the source; they are usually repeats but may differ in a detail not shown here. Equal values may be shown once. Toxic doses and inconclusive results are not listed. How the source made its calls: active means survival T/C of 150% or more; inactive means T/C below 125% in these data.

Tested on: CD2F1 mice, L1210 leukemia ip, survival T/C
Test: NCI In Vivo Anticancer Drug Screen. Data for tumor model L1210 Leukemia (intraperitoneal) in CD2F1 (CDF1) mice
Conditions: higher = longer survival
Method in brief: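 Each value reflects a quotient of treated over vehicle control outcomes in mice with a transplanted tumor.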

[1] = endpoint: mean survival time, dose: 100.0 mg/kg/injection, schedule: Q04DX003 (ip), vehicle: saline with Tween-80
[2] = endpoint: mean survival time, dose: 25.0 mg/kg/injection, schedule: Q01DX009 (ip), vehicle: saline with Tween-80
[3] = endpoint: mean survival time, dose: 50.0 mg/kg/injection, schedule: Q01DX009 (ip), vehicle: saline with Tween-80
[4] = endpoint: mean survival time, dose: 100.0 mg/kg/injection, schedule: Q01DX009 (ip), vehicle: saline with Tween-80
[5] = endpoint: mean survival time, dose: 200.0 mg/kg/injection, schedule: Q04DX003 (ip), vehicle: saline with Tween-80
[6] = endpoint: mean survival time, dose: 400.0 mg/kg/injection, schedule: Q04DX003 (ip), vehicle: saline with Tween-80
[7] = endpoint: mean survival time, dose: 25.0 mg/kg/injection, schedule: Q04DX003 (ip), vehicle: saline with Tween-80
[8] = endpoint: mean survival time, dose: 50.0 mg/kg/injection, schedule: Q04DX003 (ip), vehicle: saline with Tween-80
[9] = endpoint: mean survival time, dose: 100.0 mg/kg/injection, schedule: Q01DX001 (ip), vehicle: saline
[10] = endpoint: mean survival time, dose: 50.0 mg/kg/injection, schedule: Q01DX001 (ip), vehicle: saline
[11] = endpoint: mean survival time, dose: 200.0 mg/kg/injection, schedule: Q01DX001 (ip), vehicle: saline
[12] = endpoint: mean survival time, dose: 100.0 mg/kg/injection, schedule: Q01DX001 (ip), vehicle: saline with Tween-80
[13] = endpoint: mean survival time, dose: 200.0 mg/kg/injection, schedule: Q01DX001 (ip), vehicle: saline with Tween-80
[14] = endpoint: mean survival time, dose: 400.0 mg/kg/injection, schedule: Q01DX001 (ip), vehicle: saline with Tween-80

Measured: T/C

CNc1nc2cc(C)c(C)cc2n1C1OC(CO)C(O)C1O (configuration not stated)
inactive: endpoint: mean survival time, dose: 75.0 mg/kg/injection, schedule: Q01DX001 (ip), vehicle: saline 111 % of control | endpoint: mean survival time, dose: 150.0 mg/kg/injection, schedule: Q01DX001 (ip), vehicle: saline 103 % of control | endpoint: mean survival time, dose: 300.0 mg/kg/injection, schedule: Q01DX001 (ip), vehicle: saline 108 % of control

CN1COc2c(Cl)cc(Cl)cc2C1
inactive: endpoint: mean survival time, dose: 25.0 mg/kg/injection, schedule: Q01DX009 (ip), vehicle: saline 104 % of control | endpoint: mean survival time, dose: 50.0 mg/kg/injection, schedule: Q01DX009 (ip), vehicle: saline 104 % of control | endpoint: mean survival time, dose: 100.0 mg/kg/injection, schedule: Q01DX009 (ip), vehicle: saline 115 % of control | [1] 98 % of control

C/C(=N/NC(=O)CC#N)c1ccccc1
inactive: [2] 98 % of control | [3] 98 % of control | [4] 98 % of control

Cc1ccc(C)c(NC(=O)c2ccc(Cl)cc2Cl)c1
inactive: [1] 98 % of control | [5] 98 % of control | [6] 96 % of control

Cc1nc2ccccc2cc1C[N+]12CN3CN(CN(C3)C1)C2
inactive: [2] 106 % of control | [7] 101 % of control | [3] 113 % of control | [8] 103 % of control | [9] 109 % of control

O=C(O)c1cc(=O)c2ccccc2[nH]1
inactive: [10] 93 % of control | [9] 93 % of control | [11] 91 % of control

CC1(C)OCC2OC3(C(=O)O)OC(C)(C)OC3C2O1 (configuration not stated)
inactive: endpoint: mean survival time, dose: 50.0 mg/kg/injection, schedule: Q01DX005 (ip), vehicle: saline with Tween-80 88 % of control | [3] 98 % of control | endpoint: mean survival time, dose: 50.0 mg/kg/injection, schedule: Q04DX002 (ip), vehicle: saline with Tween-80 108 % of control | endpoint: mean survival time, dose: 100.0 mg/kg/injection, schedule: Q01DX005 (ip), vehicle: saline with Tween-80 88 % of control | [4] 95 % of control | endpoint: mean survival time, dose: 100.0 mg/kg/injection, schedule: Q04DX002 (ip), vehicle: saline with Tween-80 97 % of control | endpoint: mean survival time, dose: 200.0 mg/kg/injection, schedule: Q01DX005 (ip), vehicle: saline with Tween-80 92 % of control | endpoint: mean survival time, dose: 200.0 mg/kg/injection, schedule: Q01DX009 (ip), vehicle: saline with Tween-80 92 % of control | endpoint: mean survival time, dose: 200.0 mg/kg/injection, schedule: Q04DX002 (ip), vehicle: saline with Tween-80 93 % of control | endpoint: mean survival time, dose: 400.0 mg/kg/injection, schedule: Q01DX005 (ip), vehicle: saline with Tween-80 88 % of control | endpoint: mean survival time, dose: 400.0 mg/kg/injection, schedule: Q01DX009 (ip), vehicle: saline with Tween-80 88 % of control | endpoint: mean survival time, dose: 400.0 mg/kg/injection, schedule: Q04DX002 (ip), vehicle: saline with Tween-80 86 % of control

Cc1cc(C(O)(C(=O)O)c2ccccc2)cc(C)c1C (configuration not stated)
inactive: endpoint: mean survival time, dose: 75.0 mg/kg/injection, schedule: Q01DX001 (ip), vehicle: other 100 % of control | endpoint: mean survival time, dose: 150.0 mg/kg/injection, schedule: Q01DX001 (ip), vehicle: other 90 % of control | endpoint: mean survival time, dose: 300.0 mg/kg/injection, schedule: Q01DX001 (ip), vehicle: other 105 % of control

CC12CCC3(CO3)CC1CCC1C2CCC2(C)C1CCC21CO1 (configuration not stated)
inactive: endpoint: mean survival time, dose: 75.0 mg/kg/injection, schedule: Q01DX001 (ip), vehicle: saline with Tween-80 104 % of control | endpoint: mean survival time, dose: 150.0 mg/kg/injection, schedule: Q01DX001 (ip), vehicle: saline with Tween-80 106 % of control | endpoint: mean survival time, dose: 300.0 mg/kg/injection, schedule: Q01DX001 (ip), vehicle: saline with Tween-80 113 % of control

COCCCNCCCN1CC1
inactive: endpoint: mean survival time, dose: 16.62 mg/kg/injection, schedule: Q01DX009 (ip), vehicle: saline 115 % of control | endpoint: mean survival time, dose: 31.25 mg/kg/injection, schedule: Q01DX009 (ip), vehicle: saline 107 % of control | endpoint: mean survival time, dose: 62.5 mg/kg/injection, schedule: Q01DX009 (ip), vehicle: saline 94 % of control

COC(=O)C1=CCC[N+](C)(C)C1
inactive: endpoint: mean survival time, dose: 1.56 mg/kg/injection, schedule: Q04DX002 (ip), vehicle: saline 93 % of control | endpoint: mean survival time, dose: 3.13 mg/kg/injection, schedule: Q04DX002 (ip), vehicle: saline 93 % of control | endpoint: mean survival time, dose: 6.25 mg/kg/injection, schedule: Q04DX002 (ip), vehicle: saline 93 % of control and 105 % of control

Cc1ccc(CCCC(=O)O)c(C)c1
inactive: [1] 104 % of control | [5] 93 % of control | [6] 98 % of control

CCCCN(CCCC)CC(O)c1cc(-c2cc(C(O)CN(CCCC)CCCC)c3ccccc3n2)nc2ccccc12 (configuration not stated)
inactive: [1] 95 % of control | [5] 86 % of control

CCCCCCCNC(=O)Nc1ccc(Cl)c(Cl)c1
inactive: [12] 103 % of control | [13] 100 % of control | [14] 103 % of control

OCC(O)C(O)C(O)C(O)/C=N\Nc1ccccc1 (configuration not stated)
inactive: [12] 100 % of control | [13] 100 % of control | [14] 95 % of control

[NH-]c1ncnc2c1ncn2C1OC(CO)C(O)C1O.[NH-]c1ncnc2c1ncn2C1OC(CO)C(O)C1O.[Pt+2] (configuration not stated)
inactive: endpoint: mean survival time, dose: 12.5 mg/kg/injection, schedule: Q04DX003 (ip), vehicle: saline with Tween-80 92 % of control | [7] 95 % of control | [8] 92 % of control | [1] 89 % of control | [5] 86 % of control

CS(=O)(=O)OCCCOS(C)(=O)=O
inactive: endpoint: mean survival time, dose: 12.5 mg/kg/injection, schedule: Q01DX009 (ip), vehicle: saline with Tween-80 107 % of control | [2] 116 % of control | [10] 96 % of control | [3] 116 % of control | [9] 100 % of control | [4] 105 % of control | endpoint: mean survival time, dose: 100.0 mg/kg/injection, schedule: Q04DX003 (ip), vehicle: saline 105 % of control | [11] 102 % of control | endpoint: mean survival time, dose: 200.0 mg/kg/injection, schedule: Q04DX003 (ip), vehicle: saline 106 % of control | endpoint: mean survival time, dose: 400.0 mg/kg/injection, schedule: Q01DX001 (ip), vehicle: saline 100 % of control | endpoint: mean survival time, dose: 400.0 mg/kg/injection, schedule: Q04DX003 (ip), vehicle: saline 110 % of control

CCOC(=O)C(C(=O)OCC)N(Cc1ccccc1)Cc1ccccc1
inactive: endpoint: mean survival time, dose: 12.5 mg/kg/injection, schedule: Q01DX009 (ip), vehicle: other 93 % of control | endpoint: mean survival time, dose: 25.0 mg/kg/injection, schedule: Q01DX009 (ip), vehicle: other 93 % of control | endpoint: mean survival time, dose: 50.0 mg/kg/injection, schedule: Q01DX009 (ip), vehicle: other 96 % of control | endpoint: mean survival time, dose: 100.0 mg/kg/injection, schedule: Q01DX009 (ip), vehicle: other 93 % of control | endpoint: mean survival time, dose: 200.0 mg/kg/injection, schedule: Q01DX009 (ip), vehicle: other 90 % of control

O=CN(O)CC(=O)O.[Ni]
inactive: endpoint: mean survival time, dose: 12.5 mg/kg/injection, schedule: Q04DX003 (ip), vehicle: saline 102 % of control | endpoint: mean survival time, dose: 25.0 mg/kg/injection, schedule: Q04DX003 (ip), vehicle: saline 102 % of control

CCOC(=O)CCC[P+](c1ccccc1)(c1ccccc1)c1ccccc1
inactive: [1] 100 % of control | [5] 100 % of control | [6] 98 % of control

O=C(Nc1ccccc1CCl)Nc1ccccc1CCl
inactive: endpoint: median survival time, dose: 50.0 mg/kg/injection, schedule: Q01DX005 (ip), vehicle: saline with Tween-80 111 % of control | endpoint: median survival time, dose: 100.0 mg/kg/injection, schedule: Q01DX005 (ip), vehicle: saline with Tween-80 117 % of control | endpoint: median survival time, dose: 200.0 mg/kg/injection, schedule: Q01DX005 (ip), vehicle: saline with Tween-80 115 % of control | endpoint: median survival time, dose: 400.0 mg/kg/injection, schedule: Q01DX005 (ip), vehicle: saline with Tween-80 121 % of control

O=C(/C=C\c1ccccc1)c1ccc(Cl)cc1
inactive: endpoint: mean survival time, dose: 100.0 mg/kg/injection, schedule: Q01DX001 (ip), vehicle: other 90 % of control | endpoint: mean survival time, dose: 200.0 mg/kg/injection, schedule: Q01DX001 (ip), vehicle: other 92 % of control | endpoint: mean survival time, dose: 400.0 mg/kg/injection, schedule: Q01DX001 (ip), vehicle: other 88 % of control

O=C(N/N=C/c1ccc(Cl)cc1)C(O)(c1ccccc1)c1ccccc1
inactive: [2] 102 % of control | [3] 91 % of control | [4] 96 % of control

CC(=[C-]C(=O)O)C(=O)O.[NH-]C1CCCCC1[NH-].[Pt]
inactive: endpoint: median survival time, dose: 6.25 mg/kg/injection, schedule: Q04DX003 (ip), vehicle: saline 100 % of control | endpoint: median survival time, dose: 12.5 mg/kg/injection, schedule: Q04DX003 (ip), vehicle: saline 100 % of control | endpoint: median survival time, dose: 25.0 mg/kg/injection, schedule: Q04DX003 (ip), vehicle: saline 102 % of control | endpoint: median survival time, dose: 50.0 mg/kg/injection, schedule: Q04DX003 (ip), vehicle: saline 108 % of control | endpoint: median survival time, dose: 100.0 mg/kg/injection, schedule: Q04DX003 (ip), vehicle: saline 112 % of control
